Data on one sequence can be found in PMC7502707, “Characterization and validation of a preventative therapy for hypertrophic cardiomyopathy in a murine model of the disease” (Proceedings of the National Academy of Sciences of the …, 2020).

Marks after values point to notes of the source that are not given here.

In data set [1] the test system is wt and cTnI-G203S cardiac myocytes. Details: method as in PMID 19166857, PMID 24969422, PMID 24958783. As to conditions: cited from earlier work.
In the next data set the test system is cTnI-G203S mice. The data set is described as follows: Echocardiography of treated cTnI-G203S mice. Type of data set: in vivo, mouse. As to conditions: for FS / HW:BW / IVSD / IVSS / LVDPW / LVEDD / LVESD / LVSPW: 10 μM i.p. 3×/wk/5 wk, mean. The method, then:
Male mice expressing the human cTnI gene encoding the human disease-causing mutation cTnI-G203S were used for all studies. The mice develop hallmark features of HCM by 21 wk ([7], [13]). Male mice expressing the normal human cTnI gene were used as controls (wt). Ten-week-old mice were used for in vitro studies. For in vivo studies, 20- or 30-wk-old cTnI-G203S mice were treated with 10 μM AID-TAT or AID[S]-TAT via intraperitoneal injection, 3×/wk/5 wk. In vivo dose of AID-TAT or AID[S]-TAT (10 μM) was calculated based on blood volume, equating to ∼2 mg/kg total BW. Male animal models were used to eliminate potential differences in responses due to sex. Experiments were performed in a total of 21 wt (AID[S]-TAT), 6 wt (AID-TAT), 15 cTnI-G203S (AID[S]-TAT), and 26 cTnI-G203S (AID-TAT) mice. All animals were randomly assigned to treatment groups. All animal studies were approved by the Animal Ethics Committee of The University of Western Australia in accordance with the 2013 Australian Code for the Care and Use of Animals for Scientific Purposes ([58]).
Echocardiographic measurement of left ventricular function were performed on mice under light methoxyflurane anesthesia using an i13L probe on a Vivid 7 Dimension ultrasound system (GE Healthcare), as previously described ([13], [29], [30]). Each n represents the average of quantitative measurements from wt or cTnI-G203S mice for each treatment group. Detailed methods are provided in SI Appendix.
Echocardiographic measurement of left ventricular function were performed on mice under light methoxyflurane anesthesia using an i13L probe on a Vivid 7 Dimension ultrasound system (GE Healthcare, Little Chalfont, United Kingdom) as previously described (4, 7). Echocardiographic measurements were taken on M-mode in triplicate from separate mice at a sweep speed of 200 mm/s. Each n represents the average of quantitative measurements from wt or cTnI-G203S mice for each treatment group. Measurements of left ventricular end diastolic diameter (LVEDD), left ventricular end systolic diameter (LVESD), fractional shortening (FS), left ventricular posterior wall in diastole (LVDPW), left ventricular posterior wall in systole (LVSPW), interventricular septum in diastole (IVSD), interventricular septum in systole (IVSS) and end diastolic diameter (EDD) were made. FS was calculated by the formula [(LVEDD-LVESD)/EDD] x 100. […]
(BioAssay Systems, Hayward CA). All assays were performed as per manufacturer’s instructions, using a spectrophotometer (PowerWave XS).

For another data set, the system named is wt and cTnI-G203S mice. The data set is described as follows: Toxicity parameters: terminal serum urea, creatinine, ALT, AST and body weight. Type of data set: in vivo, mouse. As for the experimental part:
Mice were treated with 10 μM AID(S)-TAT or AID-TAT 3×/wk/5 wk (equaling 15 doses). BW was recorded prior to administration of each peptide dose, and reported as a percentage of day 1 BW. A 5 to 10% reduction in BW directed increased monitoring as recommended by The Animal Ethics Committee of The University of Western Australia in accordance with the 2008 Guidelines to Promote the Wellbeing of Animals Used for Scientific Purposes ([65]). Following completion of treatment regimen, mice were anesthetized and terminal blood collected. Serum was extracted and used to measure kidney and liver toxicity as previously described ([66]). Detailed methods are provided in SI Appendix.
Echocardiographic measurement of left ventricular function were performed on mice under light methoxyflurane anesthesia using an i13L probe on a Vivid 7 Dimension ultrasound system (GE Healthcare, Little Chalfont, United Kingdom) as previously described (4, 7). Echocardiographic measurements were taken on M-mode in triplicate from separate mice at a sweep speed of 200 mm/s. Each n represents the average of quantitative measurements from wt or cTnI-G203S mice for each treatment group. Measurements of left ventricular end diastolic diameter (LVEDD), left ventricular end systolic diameter (LVESD), fractional shortening (FS), left ventricular posterior wall in diastole (LVDPW), left ventricular posterior wall in systole (LVSPW), interventricular septum in diastole (IVSD), interventricular septum in systole (IVSS) and end diastolic diameter (EDD) were made. FS was calculated by the formula [(LVEDD-LVESD)/EDD] x 100.
Cell size was determined as previously described (16). […]
To measure kidney toxicity, urea and creatinine concentration was assessed using QuantiChrom Urea and Creatinine assay kits respectively (BioAssay Systems, Hayward CA). To measure liver toxicity, alanine transaminase (ALT) and aspartate transaminase (AST) concentration was measured using Alanine Transaminase and Aspartate Transaminase assay kits respectively (BioAssay Systems, Hayward CA). […]

The mark [2] stands for this setting: Post-HCM treatment (from 30 wk), 35-wk-old cTnI-G203S mice, n = 5.
Setting [3] is: Pre-HCM treatment (from 20 wk), 25-wk-old cTnI-G203S mice, n = 7 AID(S)-TAT, n = 6 AID-TAT.
[4] abbreviates: terminal serum, 10 μM 3×/wk/5 wk.

As for QQLEEDLKGYLDWITQAE [AID-TAT], the “elevated Ψm in response to activation of ICa-L” value in data set [1] is listed as “attenuates elevated Ψm”. For the same sequence, in the data set on cTnI-G203S mice (setting [2]), the FS was found to be 48.48%, the “HW:BW” value is reported as 5.81 mg/g, the IVSD amounted to 0.95 mm and the IVSS is listed as 1.05 mm. For the same sequence, in the data set with cTnI-G203S mice (setting [2]), the LVDPW came out at 1.26 mm, the LVEDD is listed as 3.18 mm, the LVESD was found to be 1.67 mm and the LVSPW is 1.43 mm. Also, in the data set on cTnI-G203S mice (setting [3]), the FS is 38.26^† %, the “HW:BW” value is listed as 4.70^† mg/g, the IVSD was 0.73^† mm and the IVSS is given as 0.82^† mm. In the data set on cTnI-G203S mice (setting [3]), the LVDPW was determined as 1.23 mm, the LVEDD is on record as 3.33^† mm, the LVESD is on record as 2.06^† mm and the LVSPW is reported as 1.37 mm. Also, the “reversal of established HCM” value in the data set on cTnI-G203S mice (cTnI-G203S mice with established HCM, 10 μM 3×/wk/5 wk) is reported as “not effective at reversing the cardiomyopathy”. The “development of HCM” value in the data set with cTnI-G203S mice (precardiomyopathic cTnI-G203S mice, 10 μM 3×/wk/5 wk) is given as “prevents the development of HCM”. The “body weight over the course of treatment” value in the data set on wt and cTnI-G203S mice (15 doses, % of day 1 BW) was “no significant reduction”. In addition, in the data set on wt and cTnI-G203S mice (setting [4]), the “kidney toxicity: serum urea and creatinine” value was “No significant alterations”; the “liver toxicity: serum ALT and AST” value is “No significant alterations”.
